The source of these data is ChEMBL document CHEMBL1201862, “PubChem BioAssay data set” (2004).

Structures are written as SMILES. Activity calls are given as the source filed them. Where only a bound is given, the exact number is not on record here.

One series addresses T1, Protein skinhead-1 (Caenorhabditis elegans, UniProt P34707).
T1 sequence (P34707 whole entry): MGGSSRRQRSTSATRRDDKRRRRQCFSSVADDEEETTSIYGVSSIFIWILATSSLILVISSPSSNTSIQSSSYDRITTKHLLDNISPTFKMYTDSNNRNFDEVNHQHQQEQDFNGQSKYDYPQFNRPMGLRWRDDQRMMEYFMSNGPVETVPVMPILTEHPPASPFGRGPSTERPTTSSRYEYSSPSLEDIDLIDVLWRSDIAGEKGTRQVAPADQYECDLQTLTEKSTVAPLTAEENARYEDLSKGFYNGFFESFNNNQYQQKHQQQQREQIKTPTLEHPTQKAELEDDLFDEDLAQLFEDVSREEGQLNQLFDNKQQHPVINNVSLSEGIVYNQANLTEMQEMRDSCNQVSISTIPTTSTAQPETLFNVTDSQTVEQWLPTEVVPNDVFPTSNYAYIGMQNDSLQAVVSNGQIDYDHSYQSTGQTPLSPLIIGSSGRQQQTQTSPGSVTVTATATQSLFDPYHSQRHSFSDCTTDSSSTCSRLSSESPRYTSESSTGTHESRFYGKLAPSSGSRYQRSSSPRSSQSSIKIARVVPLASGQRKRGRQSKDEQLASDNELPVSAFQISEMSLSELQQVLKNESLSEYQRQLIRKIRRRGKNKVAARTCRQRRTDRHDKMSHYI
Type of series: functional.

Series [1] addresses T2, Replicative DNA helicase DnaB (Mycobacterium tuberculosis, UniProt P9WMR3).
T2 sequence (P9WMR3 whole entry): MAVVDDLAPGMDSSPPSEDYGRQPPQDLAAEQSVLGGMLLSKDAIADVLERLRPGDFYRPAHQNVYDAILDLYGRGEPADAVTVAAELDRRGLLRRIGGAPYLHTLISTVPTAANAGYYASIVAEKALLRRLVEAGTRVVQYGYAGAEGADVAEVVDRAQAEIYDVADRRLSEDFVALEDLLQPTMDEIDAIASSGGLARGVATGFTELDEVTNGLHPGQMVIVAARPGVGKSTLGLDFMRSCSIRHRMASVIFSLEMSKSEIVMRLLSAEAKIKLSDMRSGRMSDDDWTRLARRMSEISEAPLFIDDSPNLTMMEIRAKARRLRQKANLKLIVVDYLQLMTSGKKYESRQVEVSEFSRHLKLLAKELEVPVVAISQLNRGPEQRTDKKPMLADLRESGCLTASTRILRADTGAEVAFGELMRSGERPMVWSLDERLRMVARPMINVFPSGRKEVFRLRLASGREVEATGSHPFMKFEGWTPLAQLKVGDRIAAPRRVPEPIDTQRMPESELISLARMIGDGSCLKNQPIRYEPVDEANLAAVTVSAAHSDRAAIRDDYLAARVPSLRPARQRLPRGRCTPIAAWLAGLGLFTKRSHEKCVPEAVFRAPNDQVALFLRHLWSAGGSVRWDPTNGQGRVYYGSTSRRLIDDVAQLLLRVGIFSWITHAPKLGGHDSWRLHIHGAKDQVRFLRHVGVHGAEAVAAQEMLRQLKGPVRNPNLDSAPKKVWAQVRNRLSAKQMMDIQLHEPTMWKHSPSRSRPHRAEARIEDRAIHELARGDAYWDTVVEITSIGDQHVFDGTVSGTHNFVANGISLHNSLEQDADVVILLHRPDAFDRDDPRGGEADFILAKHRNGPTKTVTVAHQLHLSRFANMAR
Put plainly: DnaB intein splicing inhibitors, dose response, biochemical, cell-free fluorescence (AID 449749). In kind it is functional.

Series [2] in a line: Intein inhibitors as potential Tuberculosis drugs, a cytotoxicity screen. [Related pubchem assays (depositor defined):AID2221, AID2223, AID434968, AID435010, AID449749, AID449750, AID489010]. In kind it is functional.
The target of series [3] is G-protein coupled receptor 55 (Homo sapiens, UniProt Q9Y2T6). In words: blockers of GPR55 signalling, imaged – imaging, image-based, counter-screen for GPR35 antagonist project, SAR follow-up (AID 2397). In kind it is functional.
For a further series, the target named is T3, Protein RecA (Mycobacterium tuberculosis, UniProt P9WHJ3).
T3 sequence (P9WHJ3 whole entry): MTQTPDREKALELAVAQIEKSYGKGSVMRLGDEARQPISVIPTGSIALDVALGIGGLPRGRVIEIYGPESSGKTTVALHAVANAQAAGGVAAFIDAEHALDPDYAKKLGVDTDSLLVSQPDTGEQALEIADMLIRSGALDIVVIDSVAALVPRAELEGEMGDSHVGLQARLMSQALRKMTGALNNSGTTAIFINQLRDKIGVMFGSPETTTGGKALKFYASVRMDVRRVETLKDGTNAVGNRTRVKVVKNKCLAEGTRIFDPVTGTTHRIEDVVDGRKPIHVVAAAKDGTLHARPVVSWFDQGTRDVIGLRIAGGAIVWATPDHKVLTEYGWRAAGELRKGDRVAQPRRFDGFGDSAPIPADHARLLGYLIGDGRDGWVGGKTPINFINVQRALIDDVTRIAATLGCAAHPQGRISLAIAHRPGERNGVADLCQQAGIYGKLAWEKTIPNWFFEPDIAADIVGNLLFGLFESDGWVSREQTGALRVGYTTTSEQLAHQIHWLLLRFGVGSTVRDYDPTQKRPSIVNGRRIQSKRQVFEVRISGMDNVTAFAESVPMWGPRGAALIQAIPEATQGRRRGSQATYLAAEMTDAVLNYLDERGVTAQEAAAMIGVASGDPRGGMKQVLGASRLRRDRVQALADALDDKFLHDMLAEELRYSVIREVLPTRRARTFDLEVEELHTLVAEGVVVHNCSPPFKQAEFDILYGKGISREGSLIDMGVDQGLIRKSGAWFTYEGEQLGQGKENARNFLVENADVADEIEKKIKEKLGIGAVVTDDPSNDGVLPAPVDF
Put plainly: Fluorescence Cell-Free Homogeneous Dose Retest to Identify Inhibitors of RecA-Intein Splicing Activity. [Related pubchem assays (depositor defined):AID2097, AID2223, AID489010, AID492950]. Type of series: functional.

Series [4] has as its target T4, Cytochrome P450 3A4 (Homo sapiens, UniProt P08684).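 Further: CYP3A4 tested as one member of a cytochrome P450 panel screen.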
For a further series, the target named is Cytochrome P450 2C9 (Homo sapiens, UniProt P11712).
For series [5], the target named is T5, Cytochrome P450 2D6 (Homo sapiens, UniProt P10635).
Series [6] addresses T6, Tyrosine-protein phosphatase non-receptor type 7 (Homo sapiens, UniProt P35236).
T6 sequence (P35236 whole entry): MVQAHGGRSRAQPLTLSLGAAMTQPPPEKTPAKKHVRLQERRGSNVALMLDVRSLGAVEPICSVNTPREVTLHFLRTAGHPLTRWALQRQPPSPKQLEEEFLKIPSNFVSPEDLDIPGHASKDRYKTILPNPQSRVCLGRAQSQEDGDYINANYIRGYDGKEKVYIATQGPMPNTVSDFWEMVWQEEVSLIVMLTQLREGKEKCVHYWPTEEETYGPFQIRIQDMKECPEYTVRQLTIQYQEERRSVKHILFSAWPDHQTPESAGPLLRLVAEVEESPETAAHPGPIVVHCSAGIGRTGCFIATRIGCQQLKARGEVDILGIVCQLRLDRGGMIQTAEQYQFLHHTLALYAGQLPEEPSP
In kind it is functional.

The target of a further series is T7, Bcl-2-like protein 10 (Homo sapiens, UniProt Q9HD36).
T7 sequence (Q9HD36 whole entry): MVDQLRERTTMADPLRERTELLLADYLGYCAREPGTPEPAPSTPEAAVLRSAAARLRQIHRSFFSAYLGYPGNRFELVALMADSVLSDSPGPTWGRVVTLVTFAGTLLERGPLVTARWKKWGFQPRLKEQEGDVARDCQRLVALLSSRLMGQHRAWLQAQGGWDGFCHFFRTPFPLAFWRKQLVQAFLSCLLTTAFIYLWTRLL
In words: Bcl-B/TR3 peptide binding disruption – biochemical, fluorescence polarization, FITC-TR3 peptide, selectivity assay for Bfl-1 inhibitor project, primary screen (AID 748).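 Further: fluorescence polarization from a fluorescein-labelled TR3 peptide binding purified Bcl-B.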

Series [7] addresses Dual specificity protein phosphatase 3 (Homo sapiens, UniProt P51452). Put plainly: SAR VHR1 Fluorescent Assay for In Vitro dose response studies. [Related pubchem assays (depositor defined):AID1654, AID1661, AID1878, AID1992, AID2004, AID2070, AID2085]. Type of series: functional.
Series [8] has as its target T8, Dual specificity protein phosphatase 6 (Rattus norvegicus, UniProt Q64346).
T8 sequence (Q64346 whole entry): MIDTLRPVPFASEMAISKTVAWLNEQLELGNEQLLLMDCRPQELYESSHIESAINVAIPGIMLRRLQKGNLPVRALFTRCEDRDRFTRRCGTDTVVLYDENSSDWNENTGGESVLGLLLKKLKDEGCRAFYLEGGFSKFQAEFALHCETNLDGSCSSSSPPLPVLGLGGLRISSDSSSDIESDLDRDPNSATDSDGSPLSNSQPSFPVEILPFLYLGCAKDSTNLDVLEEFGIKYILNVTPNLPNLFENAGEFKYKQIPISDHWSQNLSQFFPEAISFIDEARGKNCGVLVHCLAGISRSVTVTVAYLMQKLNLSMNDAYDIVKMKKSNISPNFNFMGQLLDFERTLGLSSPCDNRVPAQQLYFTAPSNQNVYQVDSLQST
In words: inhibition of rat DUSP6 enzyme activity – biochemical, in vitro, primary screen (AID 425).

Series [9] addresses T6, Tyrosine-protein phosphatase non-receptor type 7. Put plainly: redox-active compounds inhibiting HePTP phosphatase – biochemical, fluorescence, mechanism study (AID 2068). In kind it is functional.
A further series has as its target Bcl-2-like protein 1 (Homo sapiens, UniProt Q07817). Put plainly: blockers of BCLXL peptide binding – biochemical, fluorescence polarization, 1536-well, selectivity assay for MCL1 inhibitor project, dose response (AID 2218).
For series [10], the target named is T8, Dual specificity protein phosphatase 6. Type of series: functional.
A further series deals with T9, Protein Tat (Human immunodeficiency virus type 1 group M subtype B (isolate HXB2)(HIV-1), UniProt P04608).
T9 sequence (P04608 whole entry): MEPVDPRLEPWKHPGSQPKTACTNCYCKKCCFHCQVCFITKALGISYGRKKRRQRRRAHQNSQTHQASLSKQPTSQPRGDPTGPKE
In kind it is functional.

Series [11] addresses T8, Dual specificity protein phosphatase 6.
For series [12], the target named is Induced myeloid leukemia cell differentiation protein Mcl-1 (Homo sapiens, UniProt Q07820). In words: blockers of MCL1 binding to BIM peptide – biochemical, fluorescence polarization, BIM-BH3 peptide, 1536-well, dose response (AID 2217). (Fluorescence polarisation rises when a labelled molecule tumbles more slowly, as on binding a larger partner.)
For series [13], the target named is Glyceraldehyde-3-phosphate dehydrogenase (Homo sapiens, UniProt P04406).
A further series deals with Cytochrome P450 2C19 (Homo sapiens, UniProt P33261). Put plainly: Cytochrome panel assay with activity outcomes. Panel member name: p450-cyp2c19 Compounds with AC50 equal or less than 10 uM are considered active. In kind it is functional. To be noted: read-out: AC50.
For series [14], the target named is T5, Cytochrome P450 2D6. The source holds these as a separate data set.
Series [15] deals with T4, Cytochrome P450 3A4. This is another data set of the same source.
A further series has as its target T10, Cytochrome P450 1A2 (Homo sapiens, UniProt P05177).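 Further: PubChem cytochrome P450 panel assay, CYP1A2 panel member.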
T10 sequence (P05177 whole entry): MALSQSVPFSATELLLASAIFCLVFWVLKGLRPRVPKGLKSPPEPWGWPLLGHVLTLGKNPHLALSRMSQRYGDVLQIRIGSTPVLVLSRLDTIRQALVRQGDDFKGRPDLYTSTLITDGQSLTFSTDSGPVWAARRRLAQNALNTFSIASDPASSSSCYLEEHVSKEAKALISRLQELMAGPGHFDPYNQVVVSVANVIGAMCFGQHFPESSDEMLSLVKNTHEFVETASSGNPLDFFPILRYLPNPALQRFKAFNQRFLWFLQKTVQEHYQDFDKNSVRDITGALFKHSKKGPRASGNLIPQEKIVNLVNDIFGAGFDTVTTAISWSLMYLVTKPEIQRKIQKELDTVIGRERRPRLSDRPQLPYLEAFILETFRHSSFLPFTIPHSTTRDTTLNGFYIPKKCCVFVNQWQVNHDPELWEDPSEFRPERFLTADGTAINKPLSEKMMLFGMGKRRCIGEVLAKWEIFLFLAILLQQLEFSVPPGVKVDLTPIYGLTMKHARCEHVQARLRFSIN

Series [16] concerns the target UDP-galactopyranose mutase (Mycobacterium tuberculosis, UniProt P9WIQ1). In words: Inhibitors of Mycobacterium tuberculosis UDP-galactopyranose mutase (UGM) enzyme Measured in Biochemical System Using Plate Reader - 2105-02_Inhibitor_Dose_CherryPick_Activity. [Related pubchem assays (depositor defined):AID504439].
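Wherever CC50 is given: cells exposed to compound for 72 hours before luminescence readout.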

T5 sequence (P10635 whole entry): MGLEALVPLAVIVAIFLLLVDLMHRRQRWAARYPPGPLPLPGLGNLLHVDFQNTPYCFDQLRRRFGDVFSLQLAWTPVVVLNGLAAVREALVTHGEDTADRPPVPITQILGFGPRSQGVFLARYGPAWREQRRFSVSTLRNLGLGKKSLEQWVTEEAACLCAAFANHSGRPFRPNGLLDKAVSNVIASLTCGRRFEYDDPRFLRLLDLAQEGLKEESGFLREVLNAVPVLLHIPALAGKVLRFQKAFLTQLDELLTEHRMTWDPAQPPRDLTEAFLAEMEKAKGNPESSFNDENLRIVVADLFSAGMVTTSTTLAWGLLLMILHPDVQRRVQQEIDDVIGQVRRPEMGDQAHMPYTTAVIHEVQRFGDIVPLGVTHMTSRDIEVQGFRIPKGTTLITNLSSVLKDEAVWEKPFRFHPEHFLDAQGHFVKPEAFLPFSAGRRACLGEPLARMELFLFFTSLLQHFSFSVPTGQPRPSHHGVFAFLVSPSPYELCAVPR
T4 sequence (P08684 whole entry): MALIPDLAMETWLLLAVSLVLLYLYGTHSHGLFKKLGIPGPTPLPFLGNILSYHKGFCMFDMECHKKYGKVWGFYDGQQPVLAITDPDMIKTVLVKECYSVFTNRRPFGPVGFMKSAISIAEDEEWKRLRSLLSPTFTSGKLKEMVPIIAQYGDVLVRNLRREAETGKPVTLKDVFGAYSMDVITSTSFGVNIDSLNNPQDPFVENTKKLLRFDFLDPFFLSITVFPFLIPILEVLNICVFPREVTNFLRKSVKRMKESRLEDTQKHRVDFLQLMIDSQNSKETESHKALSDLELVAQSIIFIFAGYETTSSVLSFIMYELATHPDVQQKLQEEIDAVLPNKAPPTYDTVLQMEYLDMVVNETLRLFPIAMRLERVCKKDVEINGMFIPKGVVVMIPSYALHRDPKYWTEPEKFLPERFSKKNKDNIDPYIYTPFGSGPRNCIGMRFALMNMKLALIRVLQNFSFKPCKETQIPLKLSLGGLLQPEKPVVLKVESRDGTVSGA
Glyceraldehyde-3-phosphate dehydrogenase, sequence (P04406 whole entry): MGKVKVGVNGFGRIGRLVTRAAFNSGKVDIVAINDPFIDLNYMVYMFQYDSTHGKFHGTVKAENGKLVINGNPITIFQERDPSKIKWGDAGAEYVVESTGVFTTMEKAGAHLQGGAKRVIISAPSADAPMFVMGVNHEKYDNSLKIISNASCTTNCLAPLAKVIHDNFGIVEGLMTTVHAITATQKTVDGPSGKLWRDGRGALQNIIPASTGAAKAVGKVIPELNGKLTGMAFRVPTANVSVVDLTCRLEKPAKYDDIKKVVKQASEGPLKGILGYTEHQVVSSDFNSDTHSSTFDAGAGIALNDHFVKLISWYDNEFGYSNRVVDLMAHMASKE
UDP-galactopyranose mutase, sequence (P9WIQ1 whole entry): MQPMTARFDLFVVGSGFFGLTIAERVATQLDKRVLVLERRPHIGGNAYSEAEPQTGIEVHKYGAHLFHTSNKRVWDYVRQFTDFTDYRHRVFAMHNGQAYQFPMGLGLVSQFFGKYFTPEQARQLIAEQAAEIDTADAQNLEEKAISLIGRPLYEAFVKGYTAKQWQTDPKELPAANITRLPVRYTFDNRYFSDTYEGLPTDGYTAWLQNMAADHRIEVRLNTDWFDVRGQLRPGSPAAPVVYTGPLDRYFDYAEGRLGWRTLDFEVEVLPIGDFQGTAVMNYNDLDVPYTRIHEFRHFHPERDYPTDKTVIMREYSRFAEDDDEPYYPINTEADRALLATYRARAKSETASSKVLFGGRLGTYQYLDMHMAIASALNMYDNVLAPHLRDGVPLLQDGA
G-protein coupled receptor 55, sequence (Q9Y2T6 whole entry): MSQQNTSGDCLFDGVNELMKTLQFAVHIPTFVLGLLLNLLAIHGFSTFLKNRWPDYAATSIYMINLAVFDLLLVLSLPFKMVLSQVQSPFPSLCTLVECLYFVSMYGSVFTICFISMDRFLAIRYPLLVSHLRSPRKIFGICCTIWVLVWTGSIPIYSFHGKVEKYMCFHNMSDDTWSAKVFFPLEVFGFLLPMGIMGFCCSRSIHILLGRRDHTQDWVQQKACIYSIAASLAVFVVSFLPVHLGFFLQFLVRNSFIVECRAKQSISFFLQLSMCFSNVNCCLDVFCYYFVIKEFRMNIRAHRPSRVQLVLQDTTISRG
Dual specificity protein phosphatase 3, sequence (P51452 whole entry): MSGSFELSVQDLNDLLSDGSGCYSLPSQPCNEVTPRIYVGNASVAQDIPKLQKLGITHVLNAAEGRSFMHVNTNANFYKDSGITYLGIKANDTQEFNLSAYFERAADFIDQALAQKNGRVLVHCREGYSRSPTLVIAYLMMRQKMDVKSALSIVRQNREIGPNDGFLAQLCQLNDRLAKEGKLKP
Bcl-2-like protein 1, sequence (Q07817 whole entry): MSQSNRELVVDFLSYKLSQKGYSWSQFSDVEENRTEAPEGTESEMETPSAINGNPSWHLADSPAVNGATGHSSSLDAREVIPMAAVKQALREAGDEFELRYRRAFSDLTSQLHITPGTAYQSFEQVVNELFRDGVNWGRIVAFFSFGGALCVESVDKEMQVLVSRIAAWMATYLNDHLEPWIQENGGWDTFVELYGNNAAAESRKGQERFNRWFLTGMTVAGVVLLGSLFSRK
Cytochrome P450 2C19, sequence (P33261 whole entry): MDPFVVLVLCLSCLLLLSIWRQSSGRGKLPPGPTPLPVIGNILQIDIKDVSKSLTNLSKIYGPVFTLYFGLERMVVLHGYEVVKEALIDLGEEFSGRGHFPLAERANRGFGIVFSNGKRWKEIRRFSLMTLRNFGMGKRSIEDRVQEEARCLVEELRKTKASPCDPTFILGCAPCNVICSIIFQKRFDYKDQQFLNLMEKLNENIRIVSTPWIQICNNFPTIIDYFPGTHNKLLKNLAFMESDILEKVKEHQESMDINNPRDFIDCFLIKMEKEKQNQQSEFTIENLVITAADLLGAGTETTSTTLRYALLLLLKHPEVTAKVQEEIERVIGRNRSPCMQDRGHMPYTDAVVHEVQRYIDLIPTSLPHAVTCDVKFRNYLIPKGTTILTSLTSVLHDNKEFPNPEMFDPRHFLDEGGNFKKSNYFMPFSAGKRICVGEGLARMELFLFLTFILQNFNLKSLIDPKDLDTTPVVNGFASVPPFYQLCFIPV
Cytochrome P450 2C9, sequence (P11712 whole entry): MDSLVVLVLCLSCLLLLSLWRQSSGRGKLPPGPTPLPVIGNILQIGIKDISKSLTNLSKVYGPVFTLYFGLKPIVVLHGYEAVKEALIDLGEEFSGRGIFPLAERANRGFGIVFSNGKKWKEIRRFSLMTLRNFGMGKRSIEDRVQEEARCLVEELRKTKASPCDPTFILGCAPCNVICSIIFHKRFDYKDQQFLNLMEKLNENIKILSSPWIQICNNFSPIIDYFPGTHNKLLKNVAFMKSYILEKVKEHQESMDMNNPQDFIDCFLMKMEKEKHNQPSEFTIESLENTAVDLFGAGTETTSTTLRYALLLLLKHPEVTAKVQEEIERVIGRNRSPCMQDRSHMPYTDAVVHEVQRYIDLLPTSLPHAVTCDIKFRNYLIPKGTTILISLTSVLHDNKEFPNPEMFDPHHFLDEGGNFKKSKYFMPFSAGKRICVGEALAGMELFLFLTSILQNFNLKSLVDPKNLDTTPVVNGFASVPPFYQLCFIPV
Induced myeloid leukemia cell differentiation protein Mcl-1, sequence (Q07820 whole entry): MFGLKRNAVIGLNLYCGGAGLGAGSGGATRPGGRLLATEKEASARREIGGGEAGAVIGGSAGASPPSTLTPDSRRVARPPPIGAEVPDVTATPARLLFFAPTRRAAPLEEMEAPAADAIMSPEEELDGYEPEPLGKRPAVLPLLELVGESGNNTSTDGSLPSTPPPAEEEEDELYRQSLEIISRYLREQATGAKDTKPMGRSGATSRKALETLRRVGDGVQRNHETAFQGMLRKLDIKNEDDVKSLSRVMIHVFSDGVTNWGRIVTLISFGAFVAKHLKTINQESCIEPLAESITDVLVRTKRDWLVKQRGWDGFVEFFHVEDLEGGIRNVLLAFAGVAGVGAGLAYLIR

Regarding `O=C(CCCN1C(=O)/C(=C/c2cccs2)SC1=S)Nc1ccc(O)cc1`, the results for the IC50 (at Protein skinhead-1; in series [3]) were > 100 µM (inactive) and 30.5 µM (inactive), respectively. In series [1], the AC50 (commonly the concentration giving half of the maximal activity seen) was 2.11 µM (active). Further, the CC50 (commonly the concentration at which the toxic effect on the cells reaches its halfway point) in series [2] was 28.5 µM (active). Further, at Protein RecA, the EC50 – broadly, the concentration at which the effect is half-maximal – was 3.25 µM (active).
Consider `COC(=O)C1Cc2c([nH]c3ccccc23)CN1` (centres undefined), for which the AC50 result at Cytochrome P450 3A4 [4] was “inconclusive”; on Cytochrome P450 2C9 it was 25.1 µM (inconclusive); on Cytochrome P450 2D6 [5], 14.1 µM (inconclusive).
For the compound `c1ccc(CSc2nnc(-c3ccco3)c(-c3ccco3)n2)cc1`, the IC50 (commonly the midpoint of a concentration-inhibition curve) in [6] is 13.3 µM (active); on Bcl-2-like protein 10, 5.55 µM (active); in series [7], 7.06 µM (active); in series [8], > 10 µM (not active); in [9] it was 0.284 µM (active); on Bcl-2-like protein 1, > 109 µM (not active). Moreover, the IC50 in [10] was 24.2 µM (active); on Protein Tat it was 4.04 µM (inconclusive); in series [11], 23.9 µM (active); in series [12], 2.92 µM (active); in [13], > 100 µM (not active).
Take `CC(C)(C)c1ccc(-c2nnc(SCC(=O)c3ccc4c(c3)OCCO4)o2)cc1`: the AC50 at Cytochrome P450 2C19 is 3.98 µM (inconclusive); at Cytochrome P450 2D6 [14], “inconclusive”; at Cytochrome P450 3A4 [15] it was 39.8 µM (inconclusive); on Cytochrome P450 1A2, 2.24 µM (inconclusive).
With `COCCNC(=O)Cn1cc(C=C2C(=O)NC(=O)NC2=O)c2ccccc21`, the AC50 in series [16] was 46.3 µM (active).
